The values that follow are results of earlier work, collected in US20160089391A1, “Molecular Targets for Cardiovascular Disease” (Temple University-of the Commonwealth System of Higher …, priority 2014, published 2016).

The series relates to calpain. As to conditions: mouse microvascular endothelial cells (Smolock et al., 2011); cited from earlier work.

As for `CN(C)CCCn1cc(C2=C(c3c[nH]c4ccccc34)C(=O)NC2=O)c2ccccc21` [BIM-1], the calpain activity entry is reported as “decreased”.
